Test results reported in BindingDB's records for patent US12544382 (Beijing Tide Pharmaceutical Co., 2026).

Biological target: Serine/threonine-protein kinase ATR (Homo sapiens, UniProt Q13535)
Experiment: ATR Kinase Activity Assay
Experimental: Biotinylated protein derived from p53 (Eurofins, art. No.: 14-952) was phosphorylated with ATR kinase. The amount of phosphorylated protein was determined by time-resolved fluorescence in this assay. The amount of phosphorylated protein was detected by anti-p53-phospho-(serine 15)-K-specific antibody (Cisbio, art. No.: 61GSTDLA) and d2 labeled anti-GST antibody (Cisbio, art. No. 61P08KAE). Before the experiment, the following working solution was prepared as required: 1× reaction buffer (20 mM HEPES PH8.0, 1% glycerol, 0.01% Brij-35), dilution buffer (20 mM HEPES PH8.0, 1% glycerol, 0.01% Brij-35, 5 mM DTT and 1% BSA), stop solution (20 mM HEPES PH8.0, 1% glycerol, 0.01% Brij-35, 250 mM EDTA), detection buffer (50 mM HEPES pH7.0, 150 mM NaCl, 267 mM KF, 0.1% sodium cholate, 0.01% Tween-20, 0.0125% sodium azide). The reagents used above are purchased from Sigma or Invitrogen, except for those where the manufacturer was mentioned.

Sequence of Serine/threonine-protein kinase ATR (Q13535 whole entry): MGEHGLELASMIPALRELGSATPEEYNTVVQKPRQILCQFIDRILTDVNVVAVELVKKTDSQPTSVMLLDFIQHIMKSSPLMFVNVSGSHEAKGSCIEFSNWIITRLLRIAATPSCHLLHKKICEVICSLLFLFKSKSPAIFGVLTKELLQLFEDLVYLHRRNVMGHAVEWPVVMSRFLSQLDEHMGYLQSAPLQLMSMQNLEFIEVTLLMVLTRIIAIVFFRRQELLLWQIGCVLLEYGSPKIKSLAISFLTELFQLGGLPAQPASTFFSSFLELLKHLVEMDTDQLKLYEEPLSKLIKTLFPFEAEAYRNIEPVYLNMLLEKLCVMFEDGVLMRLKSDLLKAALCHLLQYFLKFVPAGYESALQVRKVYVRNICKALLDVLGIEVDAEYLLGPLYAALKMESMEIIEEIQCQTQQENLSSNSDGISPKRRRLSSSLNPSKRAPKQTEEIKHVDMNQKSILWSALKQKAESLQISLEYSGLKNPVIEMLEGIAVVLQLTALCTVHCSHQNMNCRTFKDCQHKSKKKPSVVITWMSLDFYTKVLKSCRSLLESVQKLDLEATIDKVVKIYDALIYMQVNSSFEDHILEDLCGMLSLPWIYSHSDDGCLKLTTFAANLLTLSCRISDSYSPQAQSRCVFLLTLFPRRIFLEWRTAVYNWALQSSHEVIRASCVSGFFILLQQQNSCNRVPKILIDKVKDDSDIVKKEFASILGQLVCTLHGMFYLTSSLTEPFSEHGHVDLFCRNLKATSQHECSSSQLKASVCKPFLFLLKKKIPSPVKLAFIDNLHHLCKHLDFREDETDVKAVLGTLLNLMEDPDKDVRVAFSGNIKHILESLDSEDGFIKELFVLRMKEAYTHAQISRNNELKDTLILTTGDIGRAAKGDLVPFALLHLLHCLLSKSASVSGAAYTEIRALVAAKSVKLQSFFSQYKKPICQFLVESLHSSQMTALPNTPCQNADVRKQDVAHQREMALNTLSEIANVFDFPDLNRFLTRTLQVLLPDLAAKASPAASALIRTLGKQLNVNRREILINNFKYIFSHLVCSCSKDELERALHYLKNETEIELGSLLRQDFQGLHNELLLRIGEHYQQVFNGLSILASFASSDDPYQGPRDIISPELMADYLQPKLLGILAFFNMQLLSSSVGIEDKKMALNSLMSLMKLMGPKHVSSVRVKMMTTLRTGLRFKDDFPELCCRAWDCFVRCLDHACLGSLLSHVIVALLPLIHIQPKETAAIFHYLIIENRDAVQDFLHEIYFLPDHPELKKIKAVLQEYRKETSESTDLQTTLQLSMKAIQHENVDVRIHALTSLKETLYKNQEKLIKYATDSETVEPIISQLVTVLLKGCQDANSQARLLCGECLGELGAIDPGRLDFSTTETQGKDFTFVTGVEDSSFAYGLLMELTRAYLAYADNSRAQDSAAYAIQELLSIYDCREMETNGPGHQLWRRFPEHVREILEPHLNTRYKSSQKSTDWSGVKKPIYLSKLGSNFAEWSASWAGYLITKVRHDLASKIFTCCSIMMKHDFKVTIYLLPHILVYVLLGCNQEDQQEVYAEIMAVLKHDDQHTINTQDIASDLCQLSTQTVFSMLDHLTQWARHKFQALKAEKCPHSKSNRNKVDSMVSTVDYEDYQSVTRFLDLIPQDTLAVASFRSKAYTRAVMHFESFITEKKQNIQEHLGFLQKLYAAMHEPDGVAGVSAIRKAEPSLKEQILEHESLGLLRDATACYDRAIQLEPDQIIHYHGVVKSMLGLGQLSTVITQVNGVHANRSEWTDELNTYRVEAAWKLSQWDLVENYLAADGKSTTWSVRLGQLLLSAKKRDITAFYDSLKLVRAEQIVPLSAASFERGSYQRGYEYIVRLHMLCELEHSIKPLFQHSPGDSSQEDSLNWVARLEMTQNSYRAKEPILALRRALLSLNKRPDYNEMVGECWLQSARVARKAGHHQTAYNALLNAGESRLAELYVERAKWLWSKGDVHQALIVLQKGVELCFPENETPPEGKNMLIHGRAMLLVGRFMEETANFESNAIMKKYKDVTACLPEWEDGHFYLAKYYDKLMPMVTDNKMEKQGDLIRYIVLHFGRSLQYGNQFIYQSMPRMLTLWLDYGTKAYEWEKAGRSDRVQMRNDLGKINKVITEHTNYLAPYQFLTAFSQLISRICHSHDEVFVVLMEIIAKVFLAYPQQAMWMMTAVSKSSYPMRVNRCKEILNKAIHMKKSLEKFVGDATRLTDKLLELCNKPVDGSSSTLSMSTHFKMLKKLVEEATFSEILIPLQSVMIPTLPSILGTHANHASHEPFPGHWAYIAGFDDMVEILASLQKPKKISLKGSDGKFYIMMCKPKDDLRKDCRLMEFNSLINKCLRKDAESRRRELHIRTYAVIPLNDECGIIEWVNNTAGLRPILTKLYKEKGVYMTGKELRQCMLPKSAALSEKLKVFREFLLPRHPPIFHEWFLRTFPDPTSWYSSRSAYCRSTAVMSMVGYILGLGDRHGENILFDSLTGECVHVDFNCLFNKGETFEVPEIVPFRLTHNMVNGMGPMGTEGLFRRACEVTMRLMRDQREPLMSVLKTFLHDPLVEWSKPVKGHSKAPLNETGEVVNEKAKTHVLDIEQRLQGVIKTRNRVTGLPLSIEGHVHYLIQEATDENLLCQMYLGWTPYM

Structure (SMILES) | IC50 [nM]
Cc1nn(C)c(C)c1-c1cc(N2CCOC[C@H]2C)nc(-c2ccnc(C(F)F)c2)n1 [US12544382, Example A25] | 2320
Cc1n[nH]c(C)c1-c1cc(N2CCOC[C@H]2C)nc(-c2ccnc3c2ccn3CC2CNC2)n1 [US12544382, Example A27] | 47
CNc1nc2ccccc2n1-c1nc(-c2c(C)nn(C3CCNCC3)c2C(F)(F)F)cc(N2CCOC[C@H]2C)n1 [US12544382, Example D24] | 3
CNc1nc2cc(Cl)ccc2n1-c1nc(-c2c(C)nn(C3CCNCC3)c2C(F)(F)F)cc(N2CCOC[C@H]2C)n1 [US12544382, Example D25] | 83
